Measurements published in patent US11884708B2, “Stapled peptide inhibitors of nemo as potential anti-inflammatory and anti-cancer drugs” (INSTITUT PASTEUR, priority 2015, dated 2024).
Like-named read-outs stand apart in the source and are kept apart here. Where a SMILES comes first, the peptide text is derived from it. Bridges are numbered along the chain shown (N, C = ends). [ ]: non-standard residue; d: D form. The star is where a group is joined. BODIPYFLEthylmaleimide = Cc1cc(C)n2c1C=C1C=CC(CCC(=O)NCCN3C(=O)CC(*)C3=O)=[N+]1[B-]2(F)F; Succinimide(1-Et,3-yl) = CCN1C(=O)CC(*)C1=O; S5 = C=CCCC[C@](C)(N)C(=O)O

Legend:
circular dichroism = details: 10 mM sodium phosphate; pH 7; 1 °C; 50 uM
CC2-LZ domain of NEMO = CC2-LZ domain of NEMO (Mus musculus, UniProt O88522); test: Fluorescence anisotropy/polarization binding assay
Sequence of CC2-LZ domain of NEMO (O88522 242-343 limits assumed): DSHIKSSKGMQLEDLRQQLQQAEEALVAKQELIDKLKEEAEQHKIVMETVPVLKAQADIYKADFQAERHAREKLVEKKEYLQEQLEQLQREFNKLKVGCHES
Description: Measurements were performed on a Tecan infinite F500 equipped with polarizing filters and using excitation and emission wavelengths at 485 nm and 535 nm, respectively. Anisotropy data were calculated using the Magellan software version 6.5. Prior experiments, the mouse CC2-LZ was extensively dialyzed in binding buffer containing 20 mM HEPES pH 7.4, 100 mM NaCl, and 0.05% P20 detergent (v/v). All experiments were performed in a 384 well plate (vol 25 μl) at room temperature. The BODIPY®-labeled peptide concentrations were fixed at 0.1 or 10 μM whereas the CC2-LZ concentration varied from 0 to 100 μM. Reference calibrated at 22 mP, was based on the fluorescence of the peptide alone. Each experimental binding curve was determined from at least 10 independent concentration points. The G-factor was calculated as previously described in Agou et al. [7], with a value of 0.75, which was observed constant within 5% upon all titrations. For analysis, the blank value corresponding to the value of buffer alone, was subtracted from all titration data.
All NEMO peptides were conjugated to an extra N-terminal cysteine with the fluorophore BODIPY® or FITC to determine their binding affinity for the CC2-LZ domain of NEMO (also called NOA or UBAN) by fluorescence polarization. For each peptide titration, various concentration of the target ranging from 0 to 100 μM and a fixed concentration of peptide at 0.1 or 10 μM were used at 25° C. […] For these reasons, all further titration experiments were performed with a fixed peptide concentration of 0.1 μM unless otherwise indicated.

NF-κB pathway = NF-κB pathway (Mus musculus, UniProt O88522); test: NF-κB inhibition assay, LPS-stimulated 70Z3-C3 lacZ reporter cells; type: cell-based; details: for IC 50 NF-κB inhibition: 70Z3-C3 cells, 2 h peptide then LPS 4 h, N.I = No inhibition observed
Sequence of NF-κB pathway (O88522 whole entry): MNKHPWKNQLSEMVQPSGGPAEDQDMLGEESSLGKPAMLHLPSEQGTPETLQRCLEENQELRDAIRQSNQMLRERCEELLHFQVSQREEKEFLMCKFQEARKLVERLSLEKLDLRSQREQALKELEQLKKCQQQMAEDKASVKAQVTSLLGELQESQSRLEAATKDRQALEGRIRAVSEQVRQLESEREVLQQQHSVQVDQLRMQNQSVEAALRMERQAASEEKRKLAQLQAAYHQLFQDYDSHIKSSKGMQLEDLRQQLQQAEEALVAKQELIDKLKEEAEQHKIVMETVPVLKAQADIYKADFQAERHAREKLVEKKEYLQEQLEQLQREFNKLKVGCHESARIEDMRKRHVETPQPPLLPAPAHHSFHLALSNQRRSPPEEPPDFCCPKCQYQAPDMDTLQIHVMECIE
Text: The stable cell line of pre-B lymphocyte 70Z3-C3 cells expressing the lacZ reporter gene under the control of NF-κB was previously described. OCI-Ly3 (ABC-DLBCL, MALT1 dependent) and OCI-Ly7 (GCB-DLBCL). U2932 (ABC-DLBCL, MALT1 independent) were purchased from DSMZ (Deutsche Sammlung von Mikroorganismen and Zellkulturen) and HLY1 (ABC-DLBCL, MALT1 independent). Jurkat T-cells were obtained after transduction of lentiviruses containing a NF-κB reporter luciferase gene as previously described. All cell lines were grown in RPMI 1640 medium supplemented with 10% FBS, 10 μg/ml of streptomycin, 10 U/ml of penicillin and kept at 37° C., in a 5% CO2 humidified incubator. 0.05 mM of β-mercaptoethanol was added for 70Z3-C3. Primary and secondary antibodies were as following: polyclonal rabbit anti NF-κB p65, (sc-372, Santa Cruz Biotechnology, Inc) Alexa-488 coupled goat anti-rabbit IgG1 (Invitrogen) NF-κB inhibition assay was almost similar to those previously described in [1], except that luminescence data were monitored with a Centro XS^3, LB960 luminometer (Berthold technologies.), which is more sensitive. All experiments were performed in duplicates in 96-well plates. […] After 4 h incubation, cells were centrifuged 7 min at 400×g, at 4° C.

[1] = tested on: OCI-Ly3 (ABC-DLBCL, MALT1 dependent); test: Cell death assay (CellTiter-Blue resazurin); type: cell-based, human; details: OCI-Ly3, 48 h
Description: The CellTiter-Blue® Cell Viability kit assay purchased from Promega was used to assess the cell death induced by NEMO stapled peptides in ABC- and GCB-DLBCL cell lines. […] Cells were considered 100% death when the fluorescence intensity value was the same as the one with the medium alone or with the cells treated with the cycloheximide protein synthesis inhibitor at 25 μM (Sigma Aldrich).
For each time point measurement 100 μl of cell samples were withdrawn at different incubation times (7 h, 24 h and 48 h) and subjected to resazurin assay for one hour at 37° C. in the CO2 incubator by adding and mixing for 10 sec 20 μl of resazurin. Fluorescence measurements were performed with a TECAN infinite F500 instrument at 560 nm excitation wavelength and 590 nm emission wavelength. Viability of cells at time 0 was determined just before adding compound and all experiments were performed in duplicate.
The percentage of cell death was calculated according to the following formula: (1−((RFUobs−blank)/(RFU100% viability−blank))*100), where RFUobs corresponds to the cells viability observed in the presence of compound, RFU100% viability, the initial cells viability and blank the background fluorescence measured using the medium alone.
The EC50 value was calculated by plotting the percentage of cell death as function of the compound concentration and fitting the experimental curve with the following formula: (A*P0)/(EC50+P0), where A is the amplitude of fluorescence, P0 is the peptide concentration.
To compare the inhibition efficiency of BA-UBI-SAHND306-Q313 with IKK inhibitors (MLN120B, MedChem Express) or IKKα/β inhibitor (TPCA1, R&D systems), 25,000 DLBCL cells (OCI-Ly3) were incubated for 7 h with an increasing concentration of IKK inhibitors ranging from 0 to 50 μM, and the amount of cell death was then determined using CellTiter-Blue® Cell Viability kit assay. For the MI-2 MALT1 inhibitor (Fontan et al., 2012, Cancer cell 22, 812-824), similar experiments were carried out in MALT dependent (OCI-Ly3) and independent (HLY1) DLBCL cells using a 0-25 μM range.

[2] = CD spectroscopy, α-helical content; type: physicochemical; details: 50 μM peptide, phosphate buffer pH 7.0, UBI in TFE taken as 100%
[3] = Temperature-induced denaturation followed by CD; type: physicochemical; details: 30 μM or 300 μM, ΔCp ≈ 0; for Tm: thermal denaturation by CD; for ΔH: van't Hoff enthalpy change at Tm
70Z3-C3 cells = test: Cellular uptake of BODIPY-labeled peptides by FACS; type: cell-based; details: 10 μM labeled peptide, 2 h, 37° C.
Description: 2.2×10^5 cells in 100 μl of 70Z3-C3 were incubated with either 10 μM or with various doses of 10 μM, 5 μM and 1 μM of labeled-peptides at 37° C., 5% CO2. Similarly to fluorescence microscopy experiments, cells alone or incubated with BODIPY®-labeled BSA (ref) or BODIPY®-UBI devoid of the antennapedia cell penetrating sequence were used as negative control, whereas cells with BA-UBI [1] at 10 μM were used as positive control. After 2 h incubation, cells were washed 4 times with PBS at room temperature, and finally diluted 1:3 in PBS before subjected to FACS analysis. Along with the BODIPY® fluorophore the fluorescence intensity was recorded at 525±25 nm using the Gallios Flow cytometer (Beckman Coulter) to analyse each cells sample. Each internalization peptide was assessed by gating a population of 15,000 events and the data were analysed using Kaluza software version 1.2.
For determination of cellular uptake by flow cytometry, the BA-UBI-SAHND306-Q313 stapled peptide was first incubated with 2.2×10^5 70Z3-C3 cells in […] either at 4° C. or 37° C. for 2 h. Bodipy-labeled BSA, bodipy alone and bodipy-UBI were used as negative controls to verify the washing quality and efficient removal of any non-specific binding at the cell surface before FACS analysis. […] After 2 h of incubation, cells were washed four times with PBS at room temperature and diluted at 1:3 in PBS for FACS analysis. Samples were analyzed as previously described in the European patent (No: 15307137.8).

[4] = fixed peptide concentration 10 μM

| SMILES | helicity (circular dichroism) [rel %] | IC 50 NF-κB inhibition (NF-κB pathway) | α-helical content at 1° C. [2] [%] | ΔS [3] [cal. mol^−1.K^−1] | Tm [3] [C°] | ΔH [3] [kcal/mol] | Binding affinity (FP) at 10 μM (CC2-LZ domain of NEMO; [4]) | FACS peak median, first or only peak (70Z3-C3 cells) | further results |
| --- | --- | --- | --- | --- | --- | --- | --- | --- | --- |
| CC[C@H](C)[C@H](NC(=O)[C@H](CC(=O)O)NC(=O)[C@H](C)NC(=O)[C@H](CCC(N)=O)NC(=O)[C@H](C)NC(=O)[C@H](CCCCN)NC(=O)[C@H](CC(C)C)NC(=O)[C@H](CSC1CC(=O)N(CC)C1=O)NC(C)=O)C(=O)N[C@@H](Cc1ccc(O)cc1)C(=O)N[C@@H](CCCCN)C(=O)N[C@@H](C)C(=O)N[C@@H](CCCNC(=N)N)C(=O)N[C@@H](Cc1ccccc1)C(=O)N[C@@H](CCC(N)=O)C(=O)N[C@@H](C)C(=O)N[C@@H](CCC(=O)O)C(=O)N[C@@H](CCCNC(=N)N)C(=O)N[C@@H](Cc1c[nH]cn1)C(=O)N[C@@H](C)C(=O)N[C@@H](CCCNC(=N)N)C(=O)N[C@@H](CCC(=O)O)C(=O)N[C@@H](CCCCN)C(N)=O (some centres unmarked) (Ac-C(Succinimide(1-Et,3-yl))LKAQADIYKARFQAERHAREK-NH2) | 42 |  |  |  |  |  |  |  |  |
| CC[C@H](C)[C@H](NC(=O)[C@H](CC(=O)O)NC(=O)[C@H](C)NC(=O)[C@H](CCC(N)=O)NC(=O)[C@H](C)NC(=O)[C@H](CCCCN)NC(=O)[C@H](CC(C)C)NC(=O)[C@H](CSC1CC(=O)N(CC)C1=O)NC(C)=O)C(=O)N[C@@H](Cc1ccc(O)cc1)C(=O)N[C@@H](CCCCN)C(=O)N[C@@]1(C)CCCC=CCCC[C@@](C)(C(=O)N[C@@H](CCC(=O)O)C(=O)N[C@@H](CCCNC(=N)N)C(=O)N[C@@H](Cc2c[nH]cn2)C(=O)N[C@@H](C)C(=O)N[C@@H](CCCNC(=N)N)C(=O)N[C@@H](CCC(=O)O)C(=O)N[C@@H](CCCCN)C(N)=O)NC(=O)[C@H](CCC(N)=O)NC(=O)[C@H](Cc2ccccc2)NC(=O)[C@H](CCCNC(=N)N)NC1=O (some centres unmarked) (Ac-C(Succinimide(1-Et,3-yl))LKAQADIYK[S5]RFQ[S5]ERHAREK-NH2; staple 11-15) | 65 |  |  |  |  |  |  |  |  |
| CC(=O)N[C@@H](CSC1CC(=O)N(CCNC(=O)CCC2=[N+]3C(=Cc4c(C)cc(C)n4[B-]3(F)F)C=C2)C1=O)C(=O)N[C@@H](CCC(=O)O)C(=O)N[C@@H](CC(C)C)C(=O)N[C@@H](C)C(=O)N[C@@H](CCC(N)=O)C(=O)N[C@@H](CC(C)C)C(=O)N[C@@H](CCC(N)=O)C(=O)N[C@@H](C)C(=O)N[C@@H](CCC(=O)O)C(=O)N[C@@H](CC(C)C)C(=O)N[C@@H](CC(=O)O)C(=O)N[C@]1(C)CCCCCCC=CCCC[C@@](C)(C(=O)N[C@@H](CC(=O)O)C(=O)N[C@@H](CCCCN)C(=O)N[C@@H](CCC(N)=O)C(=O)N[C@@H](CCC(=O)O)C(=O)N[C@@H](CC(C)C)C(=O)N[C@@H](CCCNC(=N)N)C(=O)N[C@@H](CCCCN)C(=O)N[C@@H](CC(C)C)C(N)=O)NC(=O)[C@H](CCC(N)=O)NC(=O)[C@H](C(C)C)NC(=O)[C@H](C(C)C)NC(=O)[C@H](C)NC(=O)[C@H](CCC(N)=O)NC(=O)[C@H](C(C)C)NC1=O (single isomer, unassigned) [Co-SAHN I307-A314, ELAQLQAELDXVQAVVQXDKQELRKL, reference compound] |  | N.I* |  |  |  |  |  |  | binding to CC2-LZ, in words (CC2-LZ domain of NEMO): does not interact; Kd (CC2-LZ domain of NEMO; fixed peptide concentration 10 μM, read-out: Binding affinity (FP) at 10 μM): > 10000 µM; NF-κB inhibition activity, in words (NF-κB pathway; LPS-induced NF-κB activation): does not inhibit; cell death [1]: no effect of cell death |
| CC(=O)N[C@@H](CSC1CC(=O)N(CCNC(=O)CCC2=[N+]3C(=Cc4c(C)cc(C)n4[B-]3(F)F)C=C2)C1=O)C(=O)N[C@@H](CC(C)C)C(=O)N[C@@H](CCCCN)C(=O)N[C@@]1(C)CCCC=CCCC[C@@](C)(C(=O)N[C@@H](Cc2ccc(O)cc2)C(=O)N[C@@H](CCCCN)C(=O)N[C@@H](C)C(=O)N[C@@H](CCCNC(=N)N)C(=O)N[C@@H](Cc2ccccc2)C(=O)N[C@@H](CCC(N)=O)C(=O)N[C@@H](C)C(=O)N[C@@H](CCC(=O)O)C(=O)N[C@@H](CCCNC(=N)N)C(=O)N[C@@H](Cc2c[nH]cn2)C(=O)N[C@@H](C)C(=O)N[C@@H](CCCNC(=N)N)C(=O)N[C@@H](CCC(=O)O)C(=O)N[C@@H](CCCCN)C(N)=O)NC(=O)[C@H](CC(=O)O)NC(=O)[C@H](C)NC(=O)[C@H](CCC(N)=O)NC1=O (some centres unmarked) [UBI-SAHN A303-I307] (Ac-C(BODIPYFLEthylmaleimide)LK[S5]QAD[S5]YKARFQAERHAREK-NH2; staple 4-8) |  | N.I* | 70 | −24 | 19 ± 0.3 | -6.9 | Very weak | 10 | Kd (CC2-LZ domain of NEMO; fixed peptide concentration 0.1 μM, read-out: Binding affinity (FP) at 0.1 μM): ~360 µM |
| CC[C@H](C)[C@@H]1NC(=O)[C@@](C)(NC(=O)[C@H](C)NC(=O)[C@H](CCC(N)=O)NC(=O)[C@H](C)NC(=O)[C@H](CCCCN)NC(=O)[C@H](CC(C)C)NC(=O)[C@H](CSC2CC(=O)N(CCNC(=O)CCC3=[N+]4C(=Cc5c(C)cc(C)n5[B-]4(F)F)C=C3)C2=O)NC(C)=O)CCCC=CCCC[C@@](C)(C(=O)N[C@@H](CCCNC(=N)N)C(=O)N[C@@H](Cc2ccccc2)C(=O)N[C@@H](CCC(N)=O)C(=O)N[C@@H](C)C(=O)N[C@@H](CCC(=O)O)C(=O)N[C@@H](CCCNC(=N)N)C(=O)N[C@@H](Cc2c[nH]cn2)C(=O)N[C@@H](C)C(=O)N[C@@H](CCCNC(=N)N)C(=O)N[C@@H](CCC(=O)O)C(=O)N[C@@H](CCCCN)C(N)=O)NC(=O)[C@H](CCCCN)NC(=O)[C@H](Cc2ccc(O)cc2)NC1=O (some centres unmarked) [UBI-SAHN D306-A310] (Ac-C(BODIPYFLEthylmaleimide)LKAQA[S5]IYK[S5]RFQAERHAREK-NH2; staple 7-11) |  | N.I* | 65 | −20 | 20 ± 0.3 | -5.79 | Not detectable | 1 | FACS peak median, second peak (70Z3-C3 cells): 35 |
